In patent publication US20180015455A1, “ADDITIVE CHANNELS” (Emulate Inc., priority 2016, published 2018):
“Also recorded” adds a separate entry of the source. Positions of bridges follow the written chain, without caps; N, C: chain ends. Non-standard residues stand in square brackets, D forms with d. Residues, ends and D or L forms follow the SMILES beside them. hArg = N=C(N)NCCCC[C@H](N)C(=O)O; Mpa = O=C(O)CCS

Experiments:
platelets [1] = assay: Platelet activation quality control by p-selectin expression; type: cell-based, human; conditions: control blood upon activation by ADP
Experimental: To test for a thrombic event, blood was collected from 4 donors, the as blood alone or blood treated with hu5C8 alone (240 μg/mL), sCD40L (10 ng/ml) alone or with combined hu5C8/sCD40L was incubated for 20 minutes at room temperature. Each sample was further incubated for 5 minutes with fluorescent labels for platelets and fibrinogen. As a standard quality control, the control blood was tested for platelet activation using p-selection expression. We confirmed that platelets in control blood were not activated but upon activation by ADP, over 90% of platelet was positive for p-selectin.

platelets [2] = assay: Vessel-On-Chip blood perfusion: platelet coverage/aggregation by fluorescence imaging; type: cell-based, human
Experimental: (§1) Briefly, human blood was drawn in citrate buffer and used within 4 hours. Platelets were stained using fluorescently labeled non-blocking antibodies for the platelet surface marker CD41 and low dosages of fluorescent fibrinogen were added in order to visualize fibrin deposition. Blood was re-calcified in order to re-establish the full coagulation potential, then introduced in the biomimetic vessel-on-chip from the main inlet (embodiments of inlets shown in FIG. 18A-1, FIG. 18A-2 and FIG. 19C). The outlet of the chip was connected to a pulling syringe pump with a system of tubing and connectors made of medical grade silicon that excludes any metal components or potential causes of platelet activation (FIG. 5A).
Platelets were labeled with human CD41-PE antibody (10 μL/ml, Invitrogen) directly added to the blood and incubated at room temperature for 5 minutes.
A medical grade plastic reservoir was mounted on the chip, then 800 μl of the blood sample was pipetted into the reservoir. The chip was perfused with the blood by withdrawing it at a rate of 60 μl/minute using a syringe pump. The citrated blood was re-calcified 2 minutes after the beginning of each experiment by adding 100 μl/ml of a solution containing 100 mM calcium chloride and 75 mM magnesium chloride to the blood to permit calcium- and magnesium-dependent platelet function and coagulation.
Chips perfused with blood samples were immediately imaged via fluorescence microscopy (Olympus IX83, 10× objective UPLFLN10X2, Orca-Flash4.0 CMOS Camera). Each chamber was inspected along its entire length and 5 images (about 0.25 cm) were captured from the central area of the chamber. Image processing and quantification was performed with an automatic macro compiled in ImageJ and numerical values corresponding to platelet coverage or fibrin florescence were collected and statistically analyzed in Graphpad Prism V7.
(§2) A percentage of signal coverage (or Platelet coverage) was computed from the binary image as the ratio of bright pixels to the total number of pixels in the image. Image processing and quantification was performed with an automatic macro compiled in ImageJ in order to ensure unbiased signal measurements. Numerical values corresponding to platelet coverage or fibrin fluorescence (signal intensity) were collected and statistically analyzed in Graphpad Prism V7.

fibrin = assay: Vessel-On-Chip blood perfusion: fibrin deposition (fluorescent fibrinogen); type: cell-based, human
Experimental: as §1
When analyzing the formation of fibrin, […] of fluorescently labeled fibrinogen (Alexa 488, Invitrogen) was also added to the blood. While fluorescent fibrinogen was barely detected as a diffused fluorescence, fibrin deposition on inflamed cells and sparse clots was easily distinguished since fibrin formed filamentous structures produce a signal intensity that is clearly observed above a background threshold.
Chips perfused with blood samples were immediately imaged via fluorescence microscopy (Olympus IX83, 10× objective UPLFLN10X2, Orca-Flash4.0 CMOS Camera). […] Image processing and quantification was performed with an automatic macro compiled in ImageJ and numerical values corresponding to platelet coverage or fibrin florescence were collected and statistically analyzed in Graphpad Prism V7.
as §2

[3] = test system: thrombin anti-thrombin complex (TAT); assay: Thrombin anti-thrombin (TAT) ELISA in chip effluent plasma; type: cell-based, human
Experimental: Thrombin converts fibrinogen into fibrin during clot formation, and anti-thrombin plays a role in maintaining homeostasis by inhibiting the effect of thrombin. Formation of TAT in the microdevice confirms that local and intrinsic generation of thrombin, a potent platelet agonist, occurs in the model and that counter regulatory mechanisms for coagulation are retained. Thus, blood sampled from the Vessel-On-Chip was analyzed for thrombin anti-thrombin complex (TAT), an accepted clinical biomarker for procoagulation^48,49. TAT refers to a factor released upon activation of the coagulation cascade and one of the biomarkers associated with thrombotic events occurring in patients affected with deep vein thrombosis (DVT) or Systemic lupus erythematosus (SLE)^45,46. An enzyme-linked immunosorbent assay (ELISA) was used to quantify the thrombin anti-thrombin complex (TAT).
Thrombin Anti-Thrombin (TAT) levels were analyzed in plasma from blood flowing out of the chip device by removing a sample from the outflow port. Thus TAT levels were evaluated in sample effluents collected from the outflow port of the chip using the Human TAT ELISA Kit (Siemens Healthineers) according to the user manual.
Blood sampled from the Vessel-On-Chip outflow port was analyzed for thrombin anti-thrombin complex (TAT), a factor released upon activation of the coagulation cascade and one of the biomarkers associated with thrombotic events occurring in patients affected with deep vein thrombosis (DVT) or SLE^45,46. TAT is an accepted clinical biomarker for procoagulation^48,49. An enzyme-linked immunosorbent assay (ELISA) was used to quantify the thrombin anti-thrombin complex (TAT).

ICAM1 = ICAM1 immunostaining of endothelium; type: cell-based, human; conditions: TNF-α stimulated endothelium
FcγRIIa = target: T1, FcγRIIa (Homo sapiens, UniProt P12318); assay: Vessel-On-Chip hu5C8-mediated thrombosis, FcγRIIa dependence (platelet coverage, fibrin deposition, TAT); type: cell-based; conditions: FcγRIIa blocked with IV.3 (1 μg/ml) or non-FcγRIIa binding IgG2σ variant, with sCD40L 10 ng/ml
T1 construct: Blood from several human donors were aliquoted into groups for the following treatments; host or cells: platelets in citrated human whole blood from donors, perfused over HUVEC-lined chips
T1 sequence (P12318 34-317): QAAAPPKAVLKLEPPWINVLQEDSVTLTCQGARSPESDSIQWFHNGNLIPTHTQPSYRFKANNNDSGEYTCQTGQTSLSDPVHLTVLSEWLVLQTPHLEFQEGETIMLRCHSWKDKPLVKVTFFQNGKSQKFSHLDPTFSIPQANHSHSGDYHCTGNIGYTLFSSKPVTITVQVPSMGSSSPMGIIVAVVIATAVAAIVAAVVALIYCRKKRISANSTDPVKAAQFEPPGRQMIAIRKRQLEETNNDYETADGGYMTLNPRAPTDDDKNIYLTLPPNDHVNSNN
Text: Recent studies conducted on humanized mice expressing the human Fcγ receptors (FCGR2A) have shown that this receptor plays a role in thrombosis leading to the IC-mediated toxicity^12,16,21. […] In order to investigate if the ICs-induced thrombosis that we observed in our vessel-on-chip system also relies on an Fc-mediated mechanism, we used two different tool molecules: IgG2a and IV.3 (FIG. 25A). The IgG2σ variant of hu5C8 has an engineered Fc region^48 that eliminates affinity for the FcγRIIa, while the monoclonal antibody IV.3 is a blocking antibody binding to FcγRIIa. Briefly, equimolar concentrations of IgG2σ or hu5c8 were incubated with 10 ng/ml of sCD40L for 20 minutes to form ICIgG2σ or IC5c8, respectively.
Some of the blood samples were treated with IV.3 (1 μg/ml) for 10 minutes to block the FcγRIIa, and then incubated for 20 more minutes with ICs. Finally, blood alone (control) or blood incubated with IC5c8, ICIgG2σ or IV.3 was perfused through the biomimetic microfluidic-on-chip for about 10 minutes. We tested 15 donors and all the tested conditions described above were tested in duplicates and analyzed as percentage of platelet coverage based on fluorescence microscopic imaging (FIG. 25B). Five of the donors were also tested for fibrin deposition (FIG. 25C). Finally, effluents plasma obtained from a total of 7 of the donors (including the 5 mentioned before) were used to assess TAT via ELISA (FIG. 25D). […]
Blood from several human donors were aliquoted into groups for the following treatments: controls (PBS), sCD40L, combined hu5C8/sCD40L, combined hu5C8 (IgG2σ)/sCD40L combined, and combined hu5C8/sCD40L/IV.3. Each condition was tested with a minimum of 3 donors to a maximum of 15 donors, and all conditions were tested in duplicates and analyzed for platelet coverage (FIG. 25B), fibrin deposition (FIG. 25C), or increased formation of TAT measured in the eluates (FIG. 25D). […]

[4] = hu5C8: lupus nephritis clinical study; IDEC-131: Crohn's disease clinical trial; cited from earlier work
[5] = Eptifibatide 2 ug/ml, endothelium inflamed with TNF-α, n=4
[6] = pro-thrombotic stimulus vs blood alone, TNF-α 50 ng/ml 6 hours on endothelium, sCollagen 10 μg/ml in blood

For Nc1ncnc2c1ncn2[C@@H]1O[C@H](COP(=O)(O)OP(=O)(O)O)[C@@H](O)[C@H]1O [ADP], the “platelets positive for p-selectin” value (platelets [1]) was “over 90%”.

With N=C(N)NCCCC[C@@H]1NC(=O)CCSSC[C@@H](C(N)=O)NC(=O)[C@@H]2CCCN2C(=O)[C@H](Cc2c[nH]c3ccccc23)NC(=O)[C@H](CC(=O)O)NC(=O)CNC1=O [Eptifibatide] ([Mpa][hArg]GDWPC-NH2; disulfide 1-7) the “inhibition of platelet aggregation” value (platelets [2]; [5]) was “significantly inhibited”, the “inhibitory effect on platelet aggregation and fibrin clot formation” value (platelets [2]; Eptifibatide 2 ug/ml, following treatment with sCollagen, n=4) was “comparatively modest” and the “platelet adhesion (image analysis of multiple experiments)” value (platelets [2]; Eptifibatide 2 ug/ml, n=4) was “completely inhibited”. For the same compound, the “effect on platelet coverage and fibrin deposition in stimulated, pro-thrombotic conditions” value (platelets [2]; Eptifibatide added, TNF-α or sCollagen, n=4) was “suppressed; also recorded: inhibited”, the “inhibition of fibrin clot formation” value (fibrin; [5]) was “significantly inhibited” and the “fibrin signal remaining with Eptifibatide” value (fibrin; Eptifibatide 2 ug/ml, samples treated with TNF-α) was “still detectable”. For the same compound, the “effect on TAT increment associated with TNF-α-induced inflammation” value ([3]; Eptifibatide treatment) was “did not inhibit” and the “effect on TAT increment due to sCollagen treatment” value ([3]; Eptifibatide treatment) was “entirely suppressed”.

For TNF-α, the platelet coverage (platelets [2]; [6]) was “significantly increased”, the “fibrin deposition / fibrin signal intensity” value (fibrin; [6]) was “significantly increased” and the “levels of TAT in outflow samples” value ([3]; after treatment, FIG. 22B) was “significantly increased; also recorded: elevated levels”. The “ICAM1 expression in the endothelium compared to control” value (ICAM1) was “increased expression; also recorded: higher”.

With “hu5C8 (IgG2σ): IgG2σ variant of hu5C8 with an engineered Fc region that eliminates affinity for FcγRIIa” the “hu5C8-mediated thrombosis on-chip (all endpoints)” value (shortened to “hu5C8-mediated thrombosis on-chip”) (FcγRIIa) was “did not show signs of thrombosis”, the “hu5C8-mediated thrombosis on-chip” value (FcγRIIa; listed as IgG2σ) was “suppressed” and the “hu5C8-mediated thrombosis on-chip” value (FcγRIIa; listed as hu5C8-IgG2σ) was “not detected”.

In the case of “hu5C8: humanized monoclonal IgG1 antibody against CD40L (anti-CD154)”, the “treatment-related effects compared to untreated blood” value (platelets [2]; hu5C8 alone 240 μg/mL or sCD40L alone 10 ng/ml, 4 donors, 60 μl/minute) is listed as “no significant treatment-related effects” and the “incidence of thromboembolic events” value [4] is listed as 2/18.
